Results from patent US7807845B2, “Resistance-repellent retroviral protease inhibitors” (priority 2004, dated 2010).

Tests used:
wild type HIV PR = target: T1, wild type HIV PR (Human immunodeficiency virus type 1 group M subtype B, UniProt P04585); test: HIV PR inhibition assay, wild type; type: biochemical
T1 construct: Recombinant wild type and mutant HIV PRs were expressed using pET21 vector (Novagen) in E. coli cells; made in house
Method: (§1) Expression and purification of WT and mutant HIV PR. Recombinant wild type and mutant HIV PRs were expressed using pET21 vector (Novagen) in E. coli cells, and purified and refolded as described previously (Gulnik et al, 1995). The cells were resuspended in 50 mM tris-HCl buffer, pH 8.0, 25 mM NaCl, 0.2% β-mercaptoethanol (buffer A), sonicated and centrifuged. Inclusion bodies were washed first with buffer A, then with buffer A containing respectively 0.1% Triton X-100, 1 M NaCl, 1 M urea, and finally with buffer A alone. Purified inclusion bodies were solubilized by addition of buffer A containing 8 M urea at room temperature. The solution was clarified by centrifugation and loaded onto 2.6×9.5 cm Q-Sepharose column. Flow-through fractions were collected and dialyzed against 3 changes of refolding buffer, which consists of 25 mM Na-phosphate, pH 7.0, 25 mM NaCl, 0.2% β-mercaptoethanol and 10% glycerol, aliquoted and stored at −80° C.
(§2) Inhibition constants were determined using the fluorogenic substrate ArgGlu(EDANS)[…]DABCYL)Arg (Amichem, USA). HIV Protease was preincubated for 0.5-1 min at ambient temperature on a 96 well plate with different concentrations of inhibitor in 0.05 M sodium phosphate buffer, pH 6.5, containing 20 mM NaCl, 2 mM DTT and 0.01% Tween-20. The reaction was initiated by the addition of substrate. Final enzyme concentration was 2-5 nM for WT and 2-30 nM for mutants. Substrate concentration was 20 uM and DMSO concentration 2%. The increase in fluorescence intensity at the emission maximum of 520 nm (excitation wavelength 340 nm, cut-off filter 495 nm) was monitored as a function of time using a Spectramax Gemini fluorescence plate reader (Molecular Devices, CA USA). The initial rate of hydrolysis was calculated by first-degree polynomial fit using SoftMAX operating software. Data were fitted to the Michaelis-Menten equation for competitive inhibitors. For tight-binding inhibitors the data were fitted by nonlinear regression analysis to the equation V=V0/2Et({[Ki(1+S/Km)+It−Et]^2+4Ki(1+S/Km)Et}^1/2−[Ki(1+S/Km)+It−Et]) (Williams and Morrison, 1979) with the program GraFit, version 5 (Erithacus Software Limited, UK), where V and V0 are initial velocities with and without inhibitor, Km is the Michaelis-Menten constant and S, Et and It are the concentrations of substrate, active enzyme and inhibitor respectively.

mutant HIV PR (Mutant 8) = mutant HIV PR (Mutant 8) (Human immunodeficiency virus type 1 group M subtype B, UniProt P04585); test: HIV PR inhibition assay, Mutant 8; type: biochemical; conditions: read-out: Ki Mutant 8; recombinant mutant HIV PR, fluorogenic substrate, pH 6.5
Method: as §1, §2

mutant HIV PR (Mutant 9) = mutant HIV PR (Mutant 9) (Human immunodeficiency virus type 1 group M subtype B, UniProt P04585); test: HIV PR inhibition assay, Mutant 9; type: biochemical; conditions: read-out: Ki Mutant 9; recombinant mutant HIV PR, fluorogenic substrate, pH 6.5
Method: as §1, §2

[1] = target: mutant HIV PR (Mutant 10) (Human immunodeficiency virus type 1 group M subtype B, UniProt P04585); test: HIV PR inhibition assay, Mutant 10; type: biochemical; conditions: read-out: Ki Mutant 10; recombinant mutant HIV PR, fluorogenic substrate, pH 6.5
Method: as §1, §2

WT=HIVHXB2 = test: Antiviral assay in MT-4 cells (MTT), WT virus; type: cell-based, HIV; conditions: Human immunodeficiency virus 1, MT4, 120 h, HIVHXB2, 5 days
Method: (§3) MT-4 cells were obtained from the AIDS Research and Reference Reagent Program (ARRRP, Division of AIDS, NIAID, NIH: MT-4 from Dr. D. Richman). Cells were propagated in RPMI 1640 supplemented with 10% fetal bovine serum, 50U of penicillin and 50 μg of streptomycin per ml (Invitrogen, Carlsbad Calif.). The following HIV viruses were used for testing of antiviral potency of compounds: WT=HIVHXB2; recombinant HIVHXB2 virus from drug resistant patient isolates; HIVmutant10 (16 mutations); HIVmutant8 (14 mutations); HIVmutant9 (10 mutations).
(§4) The potency of test compound was determined as previously described (ref 1-3) with minor modifications. MT-4 cells (1.5×10^4/ml) were exposed to 200 50 % tissue culture infective doses (TCID50) of viruses in the presence of various concentrations of test compound in 96 well microtiter plates and incubated at 37° C. for 5 days. 3-(4,5-dimethylthiazol-2-yl)-2,5-diphenytetrazolium bromide (MTT) solution was added to a final concentration of 0.75 mg/ml, and plates were incubated 1 hour. After incubation cells were dissolved in isopropanol/Triton-X 100/HCl (1000:50:25) solution. Absorbance was monitored in a microplate reader (Spectramax, Molecular Devices) at 540 nm and 690 nm. Cytotoxicity of compounds was tested in a similar assay in the absence of virus.

[2] = system: HIVmutant8 (14 mutations); test: Antiviral assay in MT-4 cells (MTT), mutant 8 virus; type: cell-based, HIV; conditions: Human immunodeficiency virus 1, MT4, 120 h, read-out: IC50 Mutant 8
Method: as §3, §4

[3] = system: HIVmutant9 (10 mutations); test: Antiviral assay in MT-4 cells (MTT), mutant 9 virus; type: cell-based, HIV; conditions: Human immunodeficiency virus 1, MT4, 120 h, read-out: IC50 Mutant 9
Method: as §3, §4

[4] = system: HIVmutant10 (16 mutations); test: Antiviral assay in MT-4 cells (MTT), mutant 10 virus; type: cell-based, HIV; conditions: Human immunodeficiency virus 1, MT4, 120 h, read-out: IC50 Mutant 10
Method: as §3, §4

`CCNC(C)=C1C(=O)Nc2ccc(S(=O)(=O)N(CC(C)C)CC(O)C(Cc3ccccc3)NC(=O)OC3COC4OCCC34)cc21` (stereo not drawn) [Compound 43, (1-Benzyl-3-{[3-(1-ethylamino-ethylidene)-2-oxo-2,3-dihydro-1H-indole-5-sulfonyl]-isobutyl-amino}-2-hydroxy-propyl)-carbamic acid hexahydro-furo[2,3-b]furan-3-yl ester] gave a Ki (wild type HIV PR) of less than 0.0001 µM, a Ki (mutant HIV PR (Mutant 8)) of less than 0.0003 µM and a Ki (mutant HIV PR (Mutant 9)) of less than 0.0001 µM. For the same compound, the Ki [1] was less than 0.001 µM, the IC50 (WT=HIVHXB2) was 0.007 µM and the IC50 [2] was 0.023 µM. It also gave an IC50 [3] of 0.009 µM and an IC50 [4] of 0.065 µM.

`CCCCNC=C1C(=O)Nc2ccc(S(=O)(=O)N(CC(C)C)CC(O)C(Cc3ccccc3)NC(=O)OC3COC4OCCC34)cc21` (stereo not drawn) [Compound 57, {1-Benzyl-3-[(3-butylaminomethylene-2-oxo-2,3-dihydro-1H-indole-5-sulfonyl)-isobutyl-amino]-2-hydroxy-propyl}-carbamic acid hexahydro-furo[2,3-b]furan-3-yl ester] gave a Ki (wild type HIV PR) of less than 0.0001 µM, a Ki (mutant HIV PR (Mutant 8)) of less than 0.0003 µM and a Ki (mutant HIV PR (Mutant 9)) of 0.00019 µM. The Ki [1] was less than 0.001 µM, the IC50 (WT=HIVHXB2) was 0.013 µM and the IC50 [2] was 0.025 µM. The IC50 [3] was 0.011 µM and the IC50 [4] was 0.04 µM.

`CC(C)CN(CC(O)C(Cc1ccccc1)NC(=O)OC1COC2OCCC12)S(=O)(=O)c1ccc2c(c1)C(=CNCC1CC1)C(=O)N2` (stereo not drawn) [Compound 101] gave a Ki (wild type HIV PR) of 0.00011 µM, a Ki (mutant HIV PR (Mutant 8)) of less than 0.0003 µM and a Ki (mutant HIV PR (Mutant 9)) of 0.00019 µM. The Ki [1] was less than 0.001 µM, the IC50 (WT=HIVHXB2) was 0.02 µM and the IC50 [2] was 0.031 µM. The IC50 [3] was 0.022 µM and the IC50 [4] was 0.055 µM.

`CCCCN(C=C1C(=O)Nc2ccc(S(=O)(=O)N(CC(C)C)CC(O)C(Cc3ccccc3)NC(=O)OC3COC4OCCC34)cc21)CC` (stereo not drawn) [Compound 118] was tested, and the Ki (wild type HIV PR) was less than 0.0001 µM, the Ki (mutant HIV PR (Mutant 8)) was less than 0.0003 µM and the Ki (mutant HIV PR (Mutant 9)) was less than 0.0001 µM. It also gave a Ki [1] of 0.0019 µM, an IC50 (WT=HIVHXB2) of 0.013 µM and an IC50 [2] of 0.04 µM. It also gave an IC50 [3] of 0.015 µM and an IC50 [4] of 0.06 µM.

With `CC(C)CN(CC(O)C(Cc1ccccc1)NC(=O)OC1COC2OCCC12)S(=O)(=O)c1ccc2c(c1)C(=CNCc1ccc3ccccc3n1)C(=O)N2` (stereo not drawn) [Compound 130] the Ki (wild type HIV PR) was 0.0001 µM, the Ki (mutant HIV PR (Mutant 8)) was less than 0.0003 µM and the Ki (mutant HIV PR (Mutant 9)) was less than 0.0001 µM. For the same compound, the Ki [1] was less than 0.001 µM, the IC50 (WT=HIVHXB2) was 0.032 µM and the IC50 [3] was 0.023 µM. For the same compound, the IC50 [4] was 0.027 µM.

In the case of `CC(NCC(F)(F)F)=C1C(=O)Nc2ccc(S(=O)(=O)N(CC(C)C)CC(O)C(Cc3ccccc3)NC(=O)OC3COC4OCCC34)cc21` (stereo not drawn) [Compound 45, [1-Benzyl-2-hydroxy-3-(isobutyl-{2-oxo-3-[1-(2,2,2-trifluoro-ethylamino)-ethylidene]-2,3-dihydro-1H-indole-5-sulfonyl}-amino)-propyl]-carbamic acid hexahydro-furo[2,3-b]furan-3-yl ester], the Ki (wild type HIV PR) is reported as less than 0.0001 µM, the Ki (mutant HIV PR (Mutant 8)) is reported as less than 0.0003 µM and the Ki (mutant HIV PR (Mutant 9)) is reported as less than 0.0001 µM. It also gave a Ki [1] of 0.0031 µM, an IC50 (WT=HIVHXB2) of 0.013 µM and an IC50 [2] of 0.026 µM. It also gave an IC50 [4] of 0.052 µM.

Compound `CCOC(=O)CN(C=C1C(=O)Nc2ccc(S(=O)(=O)N(CC(C)C)CC(O)C(Cc3ccccc3)NC(=O)OC3COC4OCCC34)cc21)Cc1ccccc1` (stereo not drawn) [Compound 138] has a Ki (wild type HIV PR) of less than 0.0001 µM, a Ki (mutant HIV PR (Mutant 8)) of less than 0.0003 µM and a Ki (mutant HIV PR (Mutant 9)) of 0.00011 µM. The Ki [1] was 0.0019 µM, the IC50 (WT=HIVHXB2) was 0.031 µM and the IC50 [3] was 0.015 µM. The IC50 [4] was 0.016 µM.

`CC(C)CCNC=C1C(=O)Nc2ccc(S(=O)(=O)N(CC(C)C)CC(O)C(Cc3ccccc3)NC(=O)OC3COC4OCCC34)cc21` (stereo not drawn) [Compound 66, [1-Benzyl-2-hydroxy-3-(isobutyl-{3-[(3-methyl-butylamino)-methylene]-2-oxo-2,3-dihydro-1H-indole-5-sulfonyl}-amino)-propyl]-carbamic acid hexahydro-furo[2,3-b]furan-3-yl ester] was tested, and the Ki (wild type HIV PR) was less than 0.0001 µM, the Ki (mutant HIV PR (Mutant 8)) was less than 0.0003 µM and the Ki (mutant HIV PR (Mutant 9)) was less than 0.0001 µM. The Ki [1] was less than 0.001 µM, the IC50 (WT=HIVHXB2) was 0.012 µM and the IC50 [2] was 0.026 µM. It also gave an IC50 [4] of 0.039 µM.
